From patent US9089605B2, “Quinone derivatives, pharmaceutical compositions, and uses thereof” (Indiana University Research and Technology Corporation, priority 2007, dated 2015)
“Also recorded” adds a separate entry of the source.

What was measured:
[1] = Qualitative solubility in solvents; assay type: physicochemical; conditions: listed solvents
avidin = avidin (Gallus gallus, UniProt P02701); conditions: cited from earlier work
avidin, sequence (P02701 25-152, species assumed): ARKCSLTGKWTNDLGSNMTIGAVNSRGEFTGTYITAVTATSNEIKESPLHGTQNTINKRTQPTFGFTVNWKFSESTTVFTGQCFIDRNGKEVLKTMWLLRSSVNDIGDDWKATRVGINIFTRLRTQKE

Compound | solubility (qualitative) [1] | melting point | solubility (qualitative) ([1]; listed as 93) | avidin binding weaker than biotin (avidin)
CC(C)(C)OC(=O)NCCCCCCNC(=O)CCCC[C@H]1[C@H]2NC(=O)N[C@H]2CS1(=O)=O [Compound 110, N—(N′-tert-butoxycarbonyl-6-aminohexyl)-5-((1R,5S,6S)-3,7,7-trioxo-7-thia-2,4-diazabicyclo[3.3.0]oct-6-yl)pentanamide] | Insoluble: CH2Cl2, acetone, NaOH aq; also recorded: Mildly Soluble MeOH, EtOH; also recorded: Soluble: DMSO | 213 to 215 °C | – | –
C[C@@H]1NC(=O)N[C@@H]1CCCCCC(=O)O [Desthiobiotin, 6-[(4R,5S)-5-methyl-imidazolidin-2-on-4-yl]hexanoic acid, reference compound] | – | – | Insoluble: CH2Cl2, H2O, acetone; also recorded: Soluble: NaOH aq | –
O=C(O)CCCC[C@H]1[C@H]2NC(=O)N[C@H]2CS1(=O)=O [Compound 89, 5-((1R,5S,6S)-3,7,7-trioxo-7-thia-2,4-diazabicyclo[3.3.0]oct-6-yl)pentanoic acid] | Insoluble in CH2Cl2, acetone, MeOH, water; also recorded: Soluble in DMSO and NaOH aq | 255 °C | – | approximately 3 fold
C[C@@H]1NC(=O)N[C@@H]1CCCCCC(=O)NCCCCCCNC(=O)OC(C)(C)C [Compound 111, N—(N′-tert-butoxycarbonyl-6-aminohexyl)-6-[(4R,5S)-5-methyl-imidazolidin-2-on-4-yl]hexanamide] | Insoluble: EtOAc, Et2O, H2O, NaOH aq; also recorded: Soluble: acetone, CH2Cl2 | – | – | –
